Source: patent US20200093801A1, “NEW METHODS FOR THE TREATMENT OF MULTIPLE SCLEROSIS” (Novartis AG, priority 2017, published 2020)
Entries after “also recorded” stand apart in the source; their conditions may differ.

Columns and labels:
[1] = system: Cuprizone-Induced Demyelination in Mice; assay: Cuprizone-induced demyelination in mice, MRI (169 mg/kg); format: in vivo, Mice (C57BL/6J); conditions: 169 mg/kg p.o. qd, 2-week therapeutic treatment after 5 weeks 0.2% cuprizone
Source text: Studies described below were approved by the Swiss Cantonal Veterinary Authority of Basel City, Switzerland, under the license number 2711. Mice (C57BL/6J) were commercially purchased from Charles River Laboratories, Germany or obtained from Novartis Pharma AG breeding colonies (8-9 weeks old, females). All the animals were allowed to adapt for 7 days prior the start of the experiment and housed in IVC racks (max. 4 mice/XJ Type cage). The animals were given access to food and water ad libitum. Animals were treated with cuprizone for 5 weeks. Cuprizone (Bis(cyclohexanone)oxaldihydrazone, Sigma-Aldrich) was mixed into rodent food pellets (0.2% w/w) by Provimi Kliba AG, Switzerland. Therapeutic treatment of animals after cuprizone was performed for 2 weeks on normal food with 169 mg/kg of BLZ945, qd, p.o. 10 ml/kg. BLZ945 was prepared in vehicle consisting of 0.5% methylcellulose in water and 0.1% Tween-80. Before killing 3 h after last BLZ945 dosing animals were perfused transcardially by phosphate-buffered saline (PBS), brains isolated and fixed in 4% paraformaldehyde (PFA) for 48 h at 4° C.
Measurements were performed with a Biospec 70/30 spectrometer (Bruker Medical Systems, Ettlingen, Germany) operating at 7 T. The operational software of the scanner was Paravision 5.1 (Bruker). Images were acquired from anesthetized, spontaneously breathing animals using a mouse brain circularly polarized coil (Bruker, Model 1P T20063V3; internal diameter 23 mm) for radiofrequency excitation and detection; neither cardiac nor respiratory triggering was applied. Following a short period of introduction in a box, animals were maintained in anesthesia with 1.5% isoflurane (Abbott, Cham, Switzerland) in oxygen, administered via a nose cone. During MRI signal acquisitions, animals were placed in prone position in a cradle made of Plexiglas, the body temperature was kept at 37±1° C. using a heating pad, and the respiration was monitored.
A T2-weighted, two-dimensional multislice RARE (Rapid Acquisition with Relaxation Enhancement) sequence (Hennig et al., 1986) was used for determining the anatomical orientation and for evaluating signal intensities. This was followed by a two-dimensional multislice gradient-recalled FLASH (Fast Low-Angle Shot) acquisition (Haase et al., 1986) for assessment of Magnetization Transfer Ration (MTR). As both sequences had the same anatomical parameters, the choice of the regions-of-interest for evaluations was performed on the RARE images and then transferred to the FLASH images. The parameters of the acquisitions were the following: (a) RARE sequence: effective echo time 80 ms, repetition time 3280 ms, RARE factor 16, 12 averages, field of view 20×18 mm^2, matrix size 213×192, pixel size 0.094×0.094 mm^2, slice thickness 0.5 mm, 15 adjacent slices. […]

microglia = assay: Microglia depletion and activation in naive/wildtype mice after 5 days of treatment (Iba1 histology); format: in vivo
Description: After fixation brains were processed for paraffin embedding by dehydration through increasing ethanol series. Automated immunohistochemistry of paraffin sections was performed on 3 μm paraffin sections mounted on SuperFrost+slides (Thermo Fisher Scientific) and automatically immunostained using the Discovery XT technology (Ventana, Roche Diagnostics). Sections were deparaffinized, rehydrated, subjected to antigen retrieval by heating with CC1 cell conditioning buffer for 28-68 min according to the antibody, incubated for 1-3 hours according to the antibody at room temperature with primary antibody diluted in antibody diluent (Ventana), incubated with the respective biotinylated secondary antibody diluted in antibody diluent, reacted with DABMab kit and counterstained with Hematoxylin II and Bluing reagent (Ventana). Slides were washed with soap in hot tap water and rinsed under cold running tap water to remove the soap, then dehydrated and embedded with Pertex.
Secondary detection antibodies are: Goat anti-rabbit IgG biotinylated (Jackson ImmunoResearch 111-065-144) 1:1000; Goat anti-rabbit IgG biotinylated (Vector BA-1000) 1:200 or 1:1000
For the quantitative evaluation of microglia/astrocyte numbers based on image analysis from histological stained brain sections, a proprietary image analysis platform (ASTORIA, Automated Stored Image Analysis) was developed based on MS Visual Studio 2010 and many functions from Matrox MIL V9 libraries (Matrox Inc, Quebec, Canada).
For the detection and analysis of soma the following sequence of steps was performed: 1. Slides with brain sections for assessment of (brown) IHC stained microglia (Iba1) or astrocyte (GFAP) were scanned with Aperio's Scanscope at 20× magnification. 2. Ran the in-house developed ImageScope (V12.1.0.5029, Aperio Inc., USA) plug-in for creation and export of 3×8-bit RGB tif image tiles (at 20× magnification) for each section. 3. Image processing (for each tif image): A: Performed color deconvolution on each tif image to obtain brown stained image without blue. B: Segmentation of valid sample (brain tissue) from white background through thresholding, morphological closing, filling of holes, opening and elimination of too small objects, resulting in a binary mask of the valid tissue and sample area for the current image. C: Applied an adaptive thresholding technique for the individual segmentation of soma, based on the average gray value of the blue channel of the color-deconvoluted brown image at sufficiently dark regions (indicative for soma). The computed threshold was used for binarization, and after size filtering yielding the soma mask image (within the valid sample region).
FIG. 10: BLZ945 treatment leads to microglia depletion and microglia activation in a dose-dependent manner. […]

[2] = normalized to vehicle control (normal food)
[3] = 20 mg/kg p.o. qd, naive/wildtype mice

## CNC(=O)c1cc(Oc2ccc3nc(N[C@@H]4CCCC[C@H]4O)sc3c2)ccn1 [BLZ945, 4-(2-((1R,2R)-2-hydroxycyclohexylamino)benzothiazol-6-yloxy)-N-methylpicolinamide]
[1]
  Magnetization transfer ratio (MTR) in corpus callosum: No beneficial effect
[1]; [2]
  MRI contrast in corpus callosum: not corpus callosum; also recorded: No beneficial effect
  MRI contrast in cortex: reduces MRI contrast; also recorded: significant beneficial effect; also recorded: almost normalized to levels of control mice
  MRI contrast in striatum: reduces MRI contrast; also recorded: significant beneficial effect; also recorded: almost normalized to levels of control mice
microglia; [3]
  Microglia activation (Iba1-positive microglia size normalized to distal microglia processes), cortex: only mildly; also recorded: slight increase in the activation status
  Microglia depletion (Iba1-positive microglia numbers), cortex: no microglia depletion; also recorded: no microglia reduction
microglia; 60 mg/kg p.o. qd, naive/wildtype mice
  Microglia activation (Iba1-positive microglia size normalized to distal microglia processes), cortex: strong microglia activation; also recorded: substantially enhanced the morphological activation status; also recorded: altered microglia morphology
microglia; 169 mg/kg p.o. qd, naive animals, all brain areas
  Microglia depletion: almost completely depletes microglia; also recorded: near complete microglia depletion
